Laboratory results from paper PMC5840262, “Design, Synthesis and Evaluation of Branched RRWQWR-Based Peptides as Antibacterial Agents Against Clinically Relevant Gram-Positive and Gram-Negative Pathogens” (Frontiers in Microbiology, 2018).
Where two headings read alike, the source gives them in different places. One block for each substance: values may come before it. Ends that are not written are not given here.

Tests used:
Format in all cases: cell-based
[1] = tested on: Enterococcus faecium clinical isolate 1,040
Procedure: (§1) For the clinical isolates, we used 20 different isolates from the Public Health Reference Laboratory collection of the Secretaría de Salud del Distrito (SdSD; Bogotá, Colombia). The samples were collected from June to December 2016. For each isolate, the patient parameters (age, gender and location) and the culture site were recorded for epidemiologic monitoring (Table 1). All isolates had been previously tested for antibiotic sensitivity at the Public Health Microbiology Laboratory using either the Phoenix™ system (Gram-positive) or the VITEK 2 system (Gram-negative).
(§2) We screened all five peptides against the ATCC reference strains and the clinical isolates according to Method M7-A7 of the National Committee for Clinical Laboratory Standards (CLSI, [2007]). The MIC50 and MBC values were determined using a broth microdilution and growth inhibition method previously reported by Leon-Calvijo et al. ([2015]), with some modifications (Wiegand et al., [2008]). Briefly, the MIC50 experiments comprised a liquid-inhibition growth assay in a sterile, untreated, 96-well flat-bottom tissue culture plate. The bacteria were cultured overnight n Mueller Hinton agar; three colonies were transferred to 8 mL of Mueller Hilton broth and incubated at 37°C until the mid-exponential phase of growth. The turbidity of the cultures was measured and adjusted spectrophotometrically to a McFarland standard of 0.5, and then diluted to a final concentration of 5 × 10^7 colony forming units (CFU) per well. Stock solutions (2,000 μM) of each test peptide were serially diluted to final concentrations (per well) of 200, 100, 50, 25, 12.5, and 6.25 μM. Each concentration was evaluated in duplicate and each assay was performed in triplicate.
(§3) Wells containing Mueller Hilton broth with bacterial inoculum only served as bacterial-growth controls. Additional controls included Mueller Hilton broth alone (as blank) and Mueller Hilton broth with ciprofloxacin (2 μg/mL; as positive control). The microplate was incubated for 24 h at 37°C, and growth inhibition was measured by monitoring the optical density at 620 nm (OD620). The MIC50 was defined as the peptide concentration at which bacterial growth was inhibited by 50%.
(§4) To determine the MBC, an aliquot from each well of the MIC50 assay was spread onto Mueller Hilton agar. After 18 h at 37°C, the concentration that inhibited bacterial growth was determined. Each of these tests was performed four times. MBC was defined as the lowest concentration of peptide at which the number of bacteria was reduced by 99.9% in vitro (European Committee for Antimicrobial Susceptibility Testing, [2000]).

[2] = tested on: Enterococcus faecium clinical isolate 1,225
Procedure: as §1, §2, §3, §4

[3] = tested on: Enterococcus faecium clinical isolate 1,461
Procedure: as §1, §2, §3, §4

[4] = tested on: Enterococcus faecium clinical isolate 1,462
Procedure: as §1, §2, §3, §4

[5] = tested on: Enterococcus faecium clinical isolate 550
Procedure: as §1, §2, §3, §4

[6] = tested on: Klebsiella pneumoniae clinical isolate 50,181
Procedure: as §1, §2, §3, §4

[7] = tested on: Klebsiella pneumoniae clinical isolate 50,424
Procedure: as §1, §2, §3, §4

[8] = tested on: Klebsiella pneumoniae clinical isolate 51,009
Procedure: as §1, §2, §3, §4

[9] = tested on: Klebsiella pneumoniae clinical isolate 51,048
Procedure: as §1, §2, §3, §4

[10] = tested on: Pseudomonas aeruginosa clinical isolate 47,661
Procedure: as §1, §2, §3, §4

[11] = tested on: Pseudomonas aeruginosa clinical isolate 48,221
Procedure: as §1, §2, §3, §4

[12] = tested on: Pseudomonas aeruginosa clinical isolate 48,458
Procedure: as §1, §2, §3, §4

[13] = tested on: Pseudomonas aeruginosa clinical isolate 48,526
Procedure: as §1, §2, §3, §4

[14] = tested on: Staphylococcus aureus clinical isolate 43,062
Procedure: as §1, §2, §3, §4

[15] = tested on: Staphylococcus aureus clinical isolate 48,575
Procedure: as §1, §2, §3, §4

[16] = tested on: Staphylococcus aureus clinical isolate 48,577
Procedure: as §1, §2, §3, §4

[17] = tested on: Staphylococcus aureus clinical isolate 52,013
Procedure: as §1, §2, §3, §4

- MIC50 ([1]; clinical isolate 1,040, 24 h): >100 µM
- MIC50 ([2]; clinical isolate 1,225, 24 h): >100 µM
- MIC50 ([3]; clinical isolate 1,461, 24 h): >100 µM
- MIC50 ([4]; clinical isolate 1,462, 24 h): 5.7 µM
- MIC50 ([5]; clinical isolate 550, 24 h): >100 µM
- MIC50 ([6]; clinical isolate 50,181, 24 h): >100 µM
- MIC50 ([7]; clinical isolate 50,424, 24 h): 5.6 µM
- MIC50 ([8]; clinical isolate 51,009, 24 h): 25.6 µM
- MIC50 ([9]; clinical isolate 51,048, 24 h): 11.7 µM
- MIC50 ([10]; clinical isolate 47,661, 24 h): 75.0 µM
- MIC50 ([11]; clinical isolate 48,221, 24 h): >100 µM
- MIC50 ([12]; clinical isolate 48,458, 24 h): >100 µM
- MIC50 ([13]; clinical isolate 48,526, 24 h): >100 µM
- MIC50 ([14]; clinical isolate 43,062, 24 h): 50.4 µM
- MIC50 ([15]; clinical isolate 48,575, 24 h): 36.5 µM
- MIC50 ([17]; clinical isolate 52,013, 24 h): 8.3 µM
Substance: RWQWRWQWR [PLS]
- MBC ([1]; clinical isolate 1,040, 18 h): >100 µM
- MBC ([2]; clinical isolate 1,225, 18 h): 100.0 µM
- MBC ([3]; clinical isolate 1,461, 18 h): 100.0 µM
- MBC ([4]; clinical isolate 1,462, 18 h): 100.0 µM
- MBC ([5]; clinical isolate 550, 18 h): 100.0 µM
- MBC ([6]; clinical isolate 50,181, 18 h): >100 µM
- MBC ([7]; clinical isolate 50,424, 18 h): >100 µM
- MBC ([8]; clinical isolate 51,009, 18 h): 100.0 µM
- MBC ([9]; clinical isolate 51,048, 18 h): >100 µM
- MBC ([10]; clinical isolate 47,661, 18 h): >100 µM
- MBC ([11]; clinical isolate 48,221, 18 h): >100 µM
- MBC ([12]; clinical isolate 48,458, 18 h): >100 µM
- MBC ([13]; clinical isolate 48,526, 18 h): 100.0 µM
- MBC ([14]; clinical isolate 43,062, 18 h): 100.0 µM
- MBC ([15]; clinical isolate 48,575, 18 h): 100.0 µM
- MBC ([16]; clinical isolate 48,577, 18 h): 100.0 µM
- MBC ([17]; clinical isolate 52,013, 18 h): 100.0 µM

- MIC50 ([1]; E. faecium isolate 1,040, broth microdilution, 24 h 37°C, OD620, 50% growth inhibition): >100 µM
- MIC50 ([2]; E. faecium isolate 1,225, broth microdilution, 24 h 37°C, OD620, 50% growth inhibition): >100 µM
- MIC50 ([3]; E. faecium isolate 1,461, broth microdilution, 24 h 37°C, OD620, 50% growth inhibition): >100 µM
- MIC50 ([4]; E. faecium isolate 1,462, broth microdilution, 24 h 37°C, OD620, 50% growth inhibition): >100 µM
- MIC50 ([5]; E. faecium isolate 550, broth microdilution, 24 h 37°C, OD620, 50% growth inhibition): >100 µM
- MIC50 ([6]; K. pneumoniae isolate 50,181, broth microdilution, 24 h 37°C, OD620, 50% growth inhibition): 5.5 µM
- MIC50 ([7]; K. pneumoniae isolate 50,424, broth microdilution, 24 h 37°C, OD620, 50% growth inhibition): 7.8 µM
- MIC50 ([8]; K. pneumoniae isolate 51,009, broth microdilution, 24 h 37°C, OD620, 50% growth inhibition): 1.6 µM
- MIC50 ([9]; K. pneumoniae isolate 51,048, broth microdilution, 24 h 37°C, OD620, 50% growth inhibition): 5.2 µM
- MIC50 ([10]; P. aeruginosa isolate 47,661, broth microdilution, 24 h 37°C, OD620, 50% growth inhibition): 7.5 µM
- MIC50 ([11]; P. aeruginosa isolate 48,221, broth microdilution, 24 h 37°C, OD620, 50% growth inhibition): 11.9 µM
- MIC50 ([12]; P. aeruginosa isolate 48,458, broth microdilution, 24 h 37°C, OD620, 50% growth inhibition): 72.8 µM
- MIC50 ([13]; P. aeruginosa isolate 48,526, broth microdilution, 24 h 37°C, OD620, 50% growth inhibition): 24.9 µM
- MIC50 ([14]; S. aureus isolate 43,062, broth microdilution, 24 h 37°C, OD620, 50% growth inhibition): 6.7 µM
- MIC50 ([15]; S. aureus isolate 48,575, broth microdilution, 24 h 37°C, OD620, 50% growth inhibition): 9.2 µM
- MIC50 ([16]; S. aureus isolate 48,577, broth microdilution, 24 h 37°C, OD620, 50% growth inhibition): 6.3 µM
- MIC50 ([17]; S. aureus isolate 52,013, broth microdilution, 24 h 37°C, OD620, 50% growth inhibition): 6.7 µM
Substance: (RRWQWR)4K2Ahx2C2 (disulfide) [LfcinB (20–25)4, branched tetrameric peptide (RRWQWR)4K2Ahx2C2, two dimers linked by a cysteine disulfide bridge]
- MBC ([1]; E. faecium isolate 1,040, plated on agar 18 h 37°C, 99.9% reduction): >100 µM
- MBC ([2]; E. faecium isolate 1,225, plated on agar 18 h 37°C, 99.9% reduction): 12.5 µM
- MBC ([3]; E. faecium isolate 1,461, plated on agar 18 h 37°C, 99.9% reduction): 12.5 µM
- MBC ([4]; E. faecium isolate 1,462, plated on agar 18 h 37°C, 99.9% reduction): 12.5 µM
- MBC ([5]; E. faecium isolate 550, plated on agar 18 h 37°C, 99.9% reduction): 12.5 µM
- MBC ([6]; K. pneumoniae isolate 50,181, plated on agar 18 h 37°C, 99.9% reduction): 100.0 µM
- MBC ([7]; K. pneumoniae isolate 50,424, plated on agar 18 h 37°C, 99.9% reduction): 100.0 µM
- MBC ([8]; K. pneumoniae isolate 51,009, plated on agar 18 h 37°C, 99.9% reduction): 25.0 µM
- MBC ([9]; K. pneumoniae isolate 51,048, plated on agar 18 h 37°C, 99.9% reduction): 50.0 µM
- MBC ([10]; P. aeruginosa isolate 47,661, plated on agar 18 h 37°C, 99.9% reduction): 25.0 µM
- MBC ([11]; P. aeruginosa isolate 48,221, plated on agar 18 h 37°C, 99.9% reduction): 50.0 µM
- MBC ([12]; P. aeruginosa isolate 48,458, plated on agar 18 h 37°C, 99.9% reduction): >100 µM
- MBC ([13]; P. aeruginosa isolate 48,526, plated on agar 18 h 37°C, 99.9% reduction): >100 µM
- MBC ([14]; S. aureus isolate 43,062, plated on agar 18 h 37°C, 99.9% reduction): 12.5 µM
- MBC ([15]; S. aureus isolate 48,575, plated on agar 18 h 37°C, 99.9% reduction): 12.5 µM
- MBC ([16]; S. aureus isolate 48,577, plated on agar 18 h 37°C, 99.9% reduction): 100.0 µM
- MBC ([17]; S. aureus isolate 52,013, plated on agar 18 h 37°C, 99.9% reduction): 12.5 µM
